Consider 17 compounds from US9657043B2, “Amine compound and use thereof for medical purposes” (MITSUBISHI TANABE PHARMA CORPORATION, priority 2012, dated 2017).

This assay deals with peripheral blood lymphocyte count. The assay can be described thus: Evaluation of peripheral blood lymphocyte count-decreasing effect in mice. To be noted: Mus musculus, ip, intraperitoneal administration, 24 hr after administration, in 20% cyclodextrin, read-out: ED50 (dose necessary for 50% reduction of the lymphocyte count of vehicle group as 100%). It counts as in vivo, male BALB/c mice. On the procedure:
The compound of the present invention was dissolved or suspended in 20% cyclodextrin (manufactured by NIHON SHOKUHIN KAKO CO., LTD), and intraperitoneally administered to a 7- to 10-week-old male BALB/c mice (CHARLES RIVER LABORATORIES, JAPAN INC.) at a dose of 0.001-10 mg/kg body weight. After 24 hr from the administration of the compound of the present invention, peripheral blood (about 0.3 ml) was drawn from the postcava of the mouse with a heparin sodium (manufactured by NovoNordisk)-treated tuberculin syringe (manufactured by TERUMO CORPORATION) under ether anesthesia. The blood (0.1 ml) was hemolysed with an automatic hemolysis processing apparatus (TQ-Prep, manufactured by BECKMAN COULTER, Inc.), and the number of lymphocytes was counted with a Flow Cytometer (CYTOMICS FC 500, manufactured by BECKMAN COULTER, Inc.) by a gating method using scattering at the front and the side of the laser beam as indices and using Flow-Count™ Fluorospheres (manufactured by BECKMAN COULTER, Inc.), whose standard particle count is known, as internal standard. A dose necessary for 50% reduction of the lymphocyte count of vehicle group as 100% was calculated and used as ED50 value (mg/kg body weight).
What is called ED50 is the dose at which the effect has come halfway, by size or by number of responders. As to `CCCCCCOc1ccc2c(=O)c3ccc(CCC(N)(CO)CO)cc3sc2c1` [Example 20, 3-[3-amino-4-hydroxy-3-(hydroxymethyl)butyl]-6-hexyloxy-9H-thioxanthen-9-one], the ED50 amounted to 0.05 mg/kg. As to `CCCCCOc1ccc2oc3ccc(CCC(N)(CO)CO)cc3c(=O)c2c1` [Example 22, 2-[3-amino-4-hydroxy-3-(hydroxymethyl)butyl]-7-pentyloxy-9H-xanthen-9-one], the ED50 was 0.07 mg/kg. With `CCCCCCOc1ccc2oc3ccc(CCC(N)(CO)CO)cc3c(=O)c2c1` [Example 23, 2-[3-amino-4-hydroxy-3-(hydroxymethyl)butyl]-7-hexyloxy-9H-xanthen-9-one] the figure was 0.03 mg/kg.

`CCCCCOc1ccc2c(=O)c3ccc(CCC(N)(CO)CO)cc3oc2c1` [Example 41, 3-[3-amino-4-hydroxy-3-(hydroxymethyl)butyl]-6-pentyloxy-9H-xanthen-9-one]: the ED50 was found to be 0.37 mg/kg. The result for `NC(CO)(CO)CCc1ccc2sc3ccc(Oc4cccc(C(F)(F)F)c4)cc3c(=O)c2c1` [Example 44, 2-[3-amino-4-hydroxy-3-(hydroxymethyl)butyl]-7-[3-(trifluoromethyl)phenoxy]-9H-thioxanthen-9-one] reads 0.01 mg/kg; that for `NC(CO)(CO)CCc1ccc2sc3cc(Oc4cccc(C(F)(F)F)c4)ccc3c(=O)c2c1` [Example 54, 2-[3-amino-4-hydroxy-3-(hydroxymethyl)butyl]-6-[3-(trifluoromethyl)phenoxy]-9H-thioxanthen-9-one], 0.02 mg/kg; that for `NC(CO)(CO)CCc1ccc2sc3cc(Oc4ccc(Cl)cc4)ccc3c(=O)c2c1` [Example 55, 2-[3-amino-4-hydroxy-3-(hydroxymethyl)butyl]-6-(4-chlorophenoxy)-9H-thioxanthen-9-one], 0.03 mg/kg. As for `NC(CO)(CO)CCc1ccc2sc3ccc(Oc4cccc(Cl)c4)cc3c(=O)c2c1` [Example 76, 2-[3-amino-4-hydroxy-3-(hydroxymethyl)butyl]-7-(3-chlorophenoxy)-9H-thioxanthen-9-one], the ED50 turned out to be 0.04 mg/kg. With `Cl.NC(CO)(CO)CCc1ccc2c(=O)c3cc(Oc4cccc(C(F)(F)F)c4)ccc3oc2c1` [Example 83, 6-[3-amino-4-hydroxy-3-(hydroxymethyl)butyl]-2-[3-(trifluoromethyl)phenoxy]-9H-xanthen-9-one] the figure was 0.05 mg/kg. For the compound `NC(CO)(CO)CCc1ccc2oc3cc(Oc4ccc(F)cc4)ccc3c(=O)c2c1` [Example 105, 2-[3-amino-4-hydroxy-3-(hydroxymethyl)butyl]-6-(4-fluorophenoxy)-9H-xanthen-9-one], the ED50 was 0.22 mg/kg.

With `COc1ccc(Oc2ccc3c(=O)c4cc(CCC(N)(CO)CO)ccc4oc3c2)cc1` [Example 108, 2-[3-amino-4-hydroxy-3-(hydroxymethyl)butyl]-6-(4-methoxyphenoxy)-9H-xanthen-9-one], the ED50 is 0.05 mg/kg.

On to `NC(CO)(CO)CCc1ccc2oc3cc(Oc4ccc(F)c(Cl)c4)ccc3c(=O)c2c1` [Example 116, 2-[3-amino-4-hydroxy-3-(hydroxymethyl)butyl]-6-(3-chloro-4-fluorophenoxy)-9H-xanthen-9-one], for which the ED50 worked out at 0.09 mg/kg. With `NC(CO)(CO)CCc1ccc2c(=O)c3cc(Oc4ccc(F)c(Cl)c4)ccc3oc2c1` [Example 138, 6-[3-amino-4-hydroxy-3-(hydroxymethyl)butyl]-2-(3-chloro-4-fluorophenoxy)-9H-xanthen-9-one] the figure was 0.06 mg/kg; with `COc1ccc(Oc2ccc3c(=O)c4ccc(CCC(N)(CO)CO)cc4oc3c2)cc1` [Example 143, 3-[3-amino-4-hydroxy-3-(hydroxymethyl)butyl]-6-(4-methoxyphenoxy)-9H-xanthen-9-one], 0.14 mg/kg; with `Cl.NC(CO)(CO)CCc1ccc2oc3cc(-c4cccc(OC(F)(F)F)c4)ccc3c(=O)c2c1` [Example 164, 2-[3-amino-4-hydroxy-3-(hydroxymethyl)butyl]-6-[3-(trifluoromethoxy)phenyl]-9H-xanthen-9-one], 0.04 mg/kg.

Consider `NC(CO)(CO)CCc1ccc2oc3cc(-c4cccc(C(F)(F)F)c4)ccc3c(=O)c2c1` [Example 172, 2-[3-amino-4-hydroxy-3-(hydroxymethyl)butyl]-6-[3-(trifluoromethyl)phenyl]-9H-xanthen-9-one], for which the ED50 turned out to be 0.09 mg/kg.

On to `CCCC/C=C/c1ccc2oc3cc(CCC(N)(CO)CO)ccc3c(=O)c2c1` [Example 180, 6-[3-amino-4-hydroxy-3-(hydroxymethyl)butyl]-2-[(1E)-hex-1-en-1-yl]-9H-xanthen-9-one], for which the ED50 was found to be 0.03 mg/kg.
